From patent US6395473B1, “Adenoviral based promoter assay” (Merck & Co., Inc., priority 1998, dated 2002)

Tested on: rat glutathione S-transferase Ya subunit promoter
Assay: CAT reporter activity induction in HepG2 cells carrying the rat GST Ya promoter/CAT construct
Format: cell-based
Details: HepG2 cells infected with pdelE1sp1B-1.6CAT, a-NF 50 mM
From the text: DNA coding for a promoter/reporter rat glutathione S-transferase Ya subunit 1.6 kb promoter sequence positioned upstream of the chloramphenicol acetyltransferase reporter gene was cloned into the adenovirus shuttle vector pdelE1sp1B, whereby the E1B genome of the adenovirus is deleted and replaced. Successful construction of the shuttle vector, pdelE1sp1B-1.6CAT was verified by both restriction mapping and by sequencing across the 5′- and 3′-ends of the cloning sites. In addition, the shuttle vector was tested functionally in HepG2 cells for regulation of expression of CAT by a-napthoflavone ([…]).
HepG2 cells were seeded in 12- or 24-well plates at a density of 60-70% confluence. Cells were infected the following day with Ad1.6CAT (9.7×10^8 pfu/ml) at an MOI of 5 for 1 h. At the end of the infection period the virus was removed, the cells were rinsed once with PBS, and fresh media was placed on the cells. […]
HepG2 cells were harvested at various time points following induction of CAT expression. […] CAT activity determined by the method of Gorman et al. using 10 ug of protein for 60 minute at 37° C. Acetylated products of chloramphenicol were extracted with mixed xylenes and quantitated by liquid scintillation counting. Results were expressed as fold induction versus control.

O=c1cc(-c2ccccc2)oc2c1ccc1ccccc12 [a-NF, a-napthoflavone]
Induction of CAT activity (fold induction versus control) (after 24 hours): approximately 45 fold | Induction of CAT activity (fold induction versus control) (after 48 hours): approximately 85 fold
